Data on nine compounds can be found in PubChem BioAssay (NCI).

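Cells were grown in 96-well plates and exposed to each compound for 48 hours at five concentrations; endpoints were interpolated linearly between bracketing concentrations, or set to the highest concentration if not reached. GI50 is the concentration that inhibits growth by half. TGI: total growth inhibition.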

Test systems include SNB-19 CNS; UACC-62 melanoma; NCI-H23 lung; EKVX NSCLC; COLO 205 colon; DU-145 prostate; MOLT-4 leukemia; NCI/ADR-RES ovarian; M14 melanoma; NCI-H226 lung.
Holding throughout (assay): growth of human tumour cells (NCI), 48 h

For the compound `O=C(Nc1cccc([N+](=O)[O-])c1)c1ccc2ccccc2c1O`, the GI50 is 4.05 µM with SNB-19 CNS; 4.22 µM in the assay with UACC-62 melanoma; 3.79 µM in the assay with NCI-H23 lung; 2.9 µM with EKVX NSCLC; 15.4 µM in the assay on COLO 205 colon; 7.58 µM in the assay on DU-145 prostate. In addition, the GI50 is 3.4 µM in the assay on MOLT-4 leukemia, 5.62 µM with NCI/ADR-RES ovarian, 6.81 µM with M14 melanoma and 7.57 µM in the assay on NCI-H226 lung. The TGI is > 85.4 µM with SNB-19 CNS; > 100 µM with UACC-62 melanoma; > 89.8 µM in the assay with NCI-H23 lung; > 57.2 µM in the assay on EKVX NSCLC; > 57.5 µM in the assay on COLO 205 colon; > 100 µM with DU-145 prostate. The TGI is > 46.5 µM with MOLT-4 leukemia, > 86.5 µM with NCI/ADR-RES ovarian, > 100 µM in the assay with M14 melanoma and > 100 µM in the assay with NCI-H226 lung.

For the compound `CC(=O)Nc1ccc2c(c1)C(=O)c1cccc(F)c1-2`, the TGI in the assay with SNB-19 CNS, in the assay on UACC-62 melanoma, in the assay with NCI-H23 lung, in the assay with EKVX NSCLC, with COLO 205 colon and in the assay with DU-145 prostate was > 100 µM in each case. The TGI with MOLT-4 leukemia, in the assay with NCI/ADR-RES ovarian, in the assay on M14 melanoma and in the assay with NCI-H226 lung was > 100 µM throughout.

Take `N#Cc1c(-c2ccc(Cl)cc2)c(-c2ccc(Cl)cc2)nn(CCOC(=O)CCC(=O)O)c1=O`: the TGI in the assay on SNB-19 CNS was > 49.2 µM; in the assay on UACC-62 melanoma, 47.7 µM; in the assay with NCI-H23 lung, 19.6 µM; with EKVX NSCLC it was > 100 µM; in the assay on COLO 205 colon it was 2.57 µM; in the assay on DU-145 prostate, 6.86 µM. Moreover, the TGI in the assay on MOLT-4 leukemia is 41.3 µM; with NCI/ADR-RES ovarian, > 12.9 µM; with M14 melanoma, 28.5 µM; in the assay with NCI-H226 lung it was 1.42 µM.

Turning to `CO/N=C(\COc1ccc2c(c1)oc(=O)c1cc(OC)ccc12)c1cccc(OC)c1`, the GI50 in the assay with SNB-19 CNS, with UACC-62 melanoma, with NCI-H23 lung, in the assay on EKVX NSCLC, in the assay with COLO 205 colon and with DU-145 prostate was > 100 µM throughout. For the same compound, the GI50 with MOLT-4 leukemia, with NCI/ADR-RES ovarian, in the assay with M14 melanoma and with NCI-H226 lung was > 100 µM in each case. The TGI in the assay on SNB-19 CNS, in the assay with UACC-62 melanoma, in the assay with NCI-H23 lung, in the assay with EKVX NSCLC, with COLO 205 colon and in the assay on DU-145 prostate was > 100 µM in each case. Further, the TGI with MOLT-4 leukemia, in the assay with NCI/ADR-RES ovarian, with M14 melanoma and in the assay with NCI-H226 lung was > 100 µM throughout.

`Cc1ccc(/C=C/C(=O)c2ccc(N)cc2)c(C)c1`: the GI50 with SNB-19 CNS was 14.4 µM; with UACC-62 melanoma it was 2.52 µM; with NCI-H23 lung it was 2.19 µM; in the assay with EKVX NSCLC it was 19.5 µM; with COLO 205 colon it was 2.43 µM; in the assay on DU-145 prostate, 10.8 µM. The GI50 is 1.28 µM in the assay with MOLT-4 leukemia, 6.65 µM in the assay on NCI/ADR-RES ovarian, 2.45 µM in the assay with M14 melanoma and 2.8 µM in the assay with NCI-H226 lung. Further, the TGI in the assay on SNB-19 CNS worked out at 27.8 µM; with UACC-62 melanoma, 7.16 µM; in the assay with NCI-H23 lung, 5.21 µM; in the assay on EKVX NSCLC, 38.8 µM; in the assay on COLO 205 colon, 6.07 µM; with DU-145 prostate, 22.7 µM. Further, the TGI in the assay with MOLT-4 leukemia is 3.69 µM; with NCI/ADR-RES ovarian it was > 100 µM; in the assay on M14 melanoma, 7.52 µM; in the assay with NCI-H226 lung it was 7.25 µM.

Consider `CC(C)=CC(O)C/C(C)=C/CC/C(C)=C/CCC1(C)C(CCCO)/C(=C(/C)C=O)CCC1(C)O` (centres undefined), for which the TGI in the assay on SNB-19 CNS is > 100 µM; in the assay with UACC-62 melanoma, > 100 µM; with NCI-H23 lung it was 93 µM; in the assay on EKVX NSCLC, > 100 µM; in the assay on COLO 205 colon, > 100 µM; in the assay with DU-145 prostate, > 100 µM. Also, the TGI was 83.2 µM with MOLT-4 leukemia, > 100 µM with NCI/ADR-RES ovarian, 60.9 µM in the assay with M14 melanoma and > 100 µM in the assay on NCI-H226 lung.

On to `CO/N=C(\COc1ccc2c(c1)oc(=O)c1cc(OC)ccc12)c1ccc(F)cc1`, for which the GI50 in the assay with SNB-19 CNS was 30.4 µM; in the assay with UACC-62 melanoma, 21.5 µM; with NCI-H23 lung, 37.6 µM; in the assay on EKVX NSCLC it was 35.2 µM; in the assay with COLO 205 colon, 59.6 µM; with DU-145 prostate it was 22.8 µM. Further, the GI50 in the assay with MOLT-4 leukemia is 36.6 µM; with NCI/ADR-RES ovarian it was 17.6 µM; in the assay on M14 melanoma, 17.8 µM; in the assay with NCI-H226 lung it was 38.1 µM. Also, the TGI was > 100 µM in the assay with SNB-19 CNS; 73.9 µM in the assay with UACC-62 melanoma; > 100 µM with NCI-H23 lung; > 100 µM in the assay on EKVX NSCLC; > 100 µM with COLO 205 colon; 62.2 µM in the assay with DU-145 prostate. The TGI in the assay with MOLT-4 leukemia is > 100 µM; with NCI/ADR-RES ovarian it was 35.6 µM; in the assay on M14 melanoma, 45.7 µM; in the assay on NCI-H226 lung, > 100 µM.

For `CCN(CC)CCCNc1nc2ccccc2c2c(=O)c3cc(Cl)ccc3sc12`, the GI50 with SNB-19 CNS was 6.81 µM; with UACC-62 melanoma, 1.76 µM; in the assay with NCI-H23 lung, 3.69 µM; with EKVX NSCLC, 3.74 µM; in the assay with COLO 205 colon, 2.33 µM; with DU-145 prostate, 2.01 µM. Moreover, the GI50 in the assay with MOLT-4 leukemia is 2.22 µM; in the assay with NCI/ADR-RES ovarian, 2.04 µM; with M14 melanoma, 1.94 µM; in the assay on NCI-H226 lung, 10.7 µM. Also, the TGI was 20.4 µM in the assay on SNB-19 CNS; 3.39 µM with UACC-62 melanoma; 15.1 µM in the assay with NCI-H23 lung; 17.3 µM in the assay on EKVX NSCLC; 5.58 µM in the assay with COLO 205 colon; 4.13 µM with DU-145 prostate. For the same compound, the TGI in the assay with MOLT-4 leukemia turned out to be 4.92 µM; with NCI/ADR-RES ovarian, 4.99 µM; with M14 melanoma it was 3.81 µM; in the assay on NCI-H226 lung it was 25.1 µM.

In the case of `CCCC(=O)Nc1cc([N+](=O)[O-])c([N+](=O)[O-])cc1OC`, the TGI came to 30.7 µM in the assay with SNB-19 CNS; 33.7 µM in the assay with UACC-62 melanoma; 34.4 µM in the assay on NCI-H23 lung; 31.8 µM in the assay on EKVX NSCLC; 30.9 µM with COLO 205 colon; 31.6 µM with DU-145 prostate. Further, the figures for the TGI in the assay on NCI/ADR-RES ovarian, in the assay on M14 melanoma and with NCI-H226 lung were > 100 µM, 25.6 µM and 51.2 µM, respectively.
